Structures can show the parent of a compound that is named as a salt. Where two headings read alike, the source gives them in different places.
Target: T1, human PAR2 receptor (Homo sapiens, UniProt P55085)
T1 construct: expressed in transfected cells; host or cells: 1321N1 cells
T1 sequence (P55085 26-397): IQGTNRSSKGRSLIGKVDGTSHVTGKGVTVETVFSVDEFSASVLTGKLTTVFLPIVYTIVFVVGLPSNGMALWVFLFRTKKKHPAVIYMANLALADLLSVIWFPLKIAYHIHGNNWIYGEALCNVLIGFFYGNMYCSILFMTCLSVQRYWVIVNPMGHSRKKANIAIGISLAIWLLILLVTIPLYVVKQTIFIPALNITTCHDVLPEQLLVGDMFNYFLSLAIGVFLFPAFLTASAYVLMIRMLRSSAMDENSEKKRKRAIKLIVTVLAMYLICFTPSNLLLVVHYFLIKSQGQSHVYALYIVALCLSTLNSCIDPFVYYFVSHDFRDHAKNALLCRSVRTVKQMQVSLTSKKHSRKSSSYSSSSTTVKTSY
Assay: PAR2 antagonist activity, calcium flux FLIPR assay (trypsin challenge)
Assay type: cell-based
Description: The PAR2 receptor couples through the Gq signaling pathway and results in activation of calcium mobilization. The functional activity of test compounds was routinely tested by measuring the ability of compounds to antagonize PAR2 (trypsin challenge) activity in a dose dependent manner, in 1321N1 cells transfected with the human PAR2 receptor, using a calcium flux Fluorescent Imaging Plate Reader FLIPR assay.
Briefly, test compounds were dissolved in DMSO to a concentration of 20 mM and stored in matrix screenmate racks. […] The compounds were then transferred to 384-well assay plates ready for use. […] The assay buffer used was HBSS buffer supplemented with 20 mM HEPES and 0.1% BSA (protease free), pH7.4. The loading/wash buffers were the same as the assay buffer.
Sub-cultivations were performed every 2-3 d. […] After washing, the cells were loaded with Fluo-4 AM dye (Molecular probes) at 2 μM containing 0.48 μg/mL pluronic acid for 60 min at 37° C. under 5% CO2.
A combined agonist/antagonist protocol was used to measure changes in intracellular calcium concentration. Compound (antagonist) was added to the cell plate using a Fluorometric Imaging Plate Reader (FLIPR) (Molecular Devices, Sunnyvale, Calif., USA). Basal fluorescence was recorded every second for 10 seconds prior to compound addition (10 μl) and fluorescence recorded every second for 1 min then every 6 seconds for a further 1 min. Trypsin (EC50 concentration) was then added using the FLIPR and fluorescence recorded as described above. Curve-fitting and parameter estimation were carried out using GraphPad Prism 4.0 (GraphPad Software Inc., San Diego, Calif.).

[1] = 1321N1 cells transfected with the human PAR2 receptor, trypsin (EC50 concentration) challenge, calcium flux FLIPR, read-out: PAR2 IC50

SMILES | IC50 [1] [µM] | IC50 [µM]
NCc1ccc(CNC(=O)N2CCCC(Cc3ccccc3)C2)cc1 (stereo not shown) [Example 21, 2,2,2-Trifluoroacetic acid; N-{[4-(aminomethyl)phenyl]methyl}-3-benzylpiperidine-1-carboxamide] | 50 to 100 | 
O=C(NCc1ccc2c(c1)CNC2)N1CCC(Oc2ccc(F)cc2)CC1 [Example 66, N-(2,3-Dihydro-1H-isoindol-5-ylmethyl)-4-(4-fluorophenoxy) piperidine-1-carboxamide hydrochloride] | 20 to 50 | 
NCc1ccc(CNC(=O)N2CCC(Cc3ccccc3)CC2)cc1F [Example 35, N-{[4-(Aminomethyl)-3-fluorophenyl]methyl}-4-benzylpiperidine-1-carboxamide] | < 5 | 
O=C(NCc1ccc2c(c1)CNC2)N1CCC(Cc2ccccc2)CC1 [Example 64, 4-Benzyl-N-(2,3-dihydro-1H-isoindol-5-ylmeth-yl)piperidine-1-carboxamide] | 5 to 20 | 
NCc1ccc(CNC(=O)N2CCC(Cc3ccc(Cl)cc3)CC2)cc1 [Example 6, 2,2,2-Trifluoroacetic acid; N-{[4-(aminomethyl)phenyl]methyl}-4-[(4-chlorophenyl)methyl] piperidine-1-carboxamide] | < 5 | 
NCc1ccc(CNC(=O)N2CCC(C(=O)N3CCc4ccccc43)CC2)cc1 [Example 32, 2,2,2-Trifluoroacetic acid; N-{[4-(aminomethyl)phenyl]methyl}-4-[(2,3-dihydro-1H-indol-1-yl)carbonyl]piper-idine-1-carboxamide] | 50 to 100 | 
NCc1ccc(CNC(=O)N2CCC(C(=O)N3CCCCC3)CC2)cc1 [Example 31, N-{[4-(Aminomethyl)phen-yl]methyl}-4-[(piperidin-1-yl)carbon-yl]piperidine-1-carboxamide hydrochloride] | 50 to 100 | 
CN(Cc1ccc(C(=N)N)cc1)C(=O)N1CCC(Cc2ccccc2)CC1 [Example 43, 4-Benzyl-N-[(4-carbamimidoylphenyl)methyl]-N-methylpiperidine-1-carboxamide hydrochloride] | 5 to 20 | 
NCc1ccc(CNC(=O)N2CCC(n3c(=O)[nH]c4ccccc43)CC2)cc1 [Example 33, N-{[4-(Aminomethyl)phen-yl]methyl}-4-(2-oxo-2,3-dihydro-1H-1,3-benzodiazol-1-yl)piperidine-1-carboxa-mide hydrochloride] | 20 to 50 | 
Nc1nc2ccc(CNC(=O)N3CCC(Cc4ccccc4)CC3)cc2[nH]1 [Example 62, N-[(2-Amino-1H-1,3-benzodiazol-6-yl)methyl]-4-benzylpiperidine-1-carboxamide] | 5 to 20 | 
O=C(NCc1ccc2nn[nH]c2c1)N1CCC(Cc2ccccc2)CC1 [Example 61, N-(1H-1,2,3-Benzotriazol-6-ylmethyl)-4-benzylpiperidine-1-carboxamide] | 50 to 100 | 
NCc1ccc(CNC(=O)N2CCC(Oc3cccc(Cl)c3)CC2)cc1 [Example 14, N-{[4-(Aminomethyl)phen-yl]methyl}-4-(3-chlorophenoxy)piperidine-1-carboxamide hydrochloride] | 20 to 50 | 
O=C(NCc1ccc2nc[nH]c2c1)N1CCC(c2ccccc2)C1 (stereo not shown) [Example 59, 2,2,2-Trifluoroacetic acid; N-(1H-1,3-benzodiazol-5-ylmethyl)-3-phenylpyrrolidine-1-carboxamide] | 5 to 20 | 
O=C(NCc1ccc(-c2ncc[nH]2)cc1)N1CCC(Cc2ccccc2)CC1 [Example 51, 4-Benzyl-N-{[4-(1H-imidazol-2-yl)phenyl]methyl}piperidine-1-carboxamide] | 20 to 50 | 
NCc1ccc(CNC(=O)N2CCC(Cc3ccncc3)CC2)cc1 [Example 10, N-{[4-(Aminomethyl)phen-yl]methyl}-4-(pyridin-4-ylmethyl)piperidine-1-carboxamide] | 5 to 20 | 
NCc1ccc(CNC(=O)N2CCC(C(O)c3ccc(F)cc3)CC2)cc1 (stereo not shown) [Example 19, N-{[4-(Aminomethyl)phen-yl]methyl}-4-[(4-fluorophenyl)(hydroxy)meth-yl] piperidine-1-carboxamide] | 5 to 20 | 
NCc1ccc(CNC(=O)C2CCN(Cc3cccc(F)c3)CC2)cc1 [Example 23, N-{[4-(Aminomethyl)phen-yl]methyl}-1-[(3-fluorophenyl)methyl]piper-idine-4-carboxamide] | 5 to 20 | 

SMILES | IC50 [1] [µM] | IC50 [µM]
N=C(N)Nc1ccc(CNC(=O)N2CCC(Cc3ccccc3)CC2)cc1 [Example 63, 2,2,2-Trifluoroacetic acid; 4-benzyl-N-[(4-carbamimidamidophenyl)methyl]piperidine-1-carboxamide] | 5 to 20 | 
COc1cccc(CC2CCN(C(=O)NCc3ccc(CN)cc3)CC2)c1 [Example 2, 2,2,2-Trifluoroacetic acid; N-{[4-(aminomethyl)phenyl]methyl}-4-[(3-methoxyphenyl)methyl] piperidine-1-carboxamide] | 20 to 50 | 
NCc1ccc(CNC(=O)N2CCC(Oc3ccc(Cl)cc3)CC2)cc1 [Example 15, N-{[4-(Aminomethyl)phen-yl]methyl}-4-(4-chlorophenoxy)piperidine-1-carboxamide hydrochloride] | 20 to 50 | 
NCc1ccc(CNC(=O)N2CCC(Sc3ccccc3)CC2)cc1 [Example 16, N-{[4-(Aminomethyl)phen-yl]methyl}-4-(phenylsulfanyl)piperidine-1-carboxamide hydrochloride] | 5 to 20 | 
NCc1cccc(CNC(=O)N2CCC(Cc3ccccc3)CC2)c1 [Example 67, N-{[3-(Aminometh-yl)phen-yl]methyl}-4-benzylpiperidine-1-carboxamide] | 50 to 100 | 
Cc1ccc(CC2CCN(C(=O)NCc3ccc(CN)cc3)CC2)cc1 [Example 7, 2,2,2-Trifluoroacetic acid; N-{[4-(aminomethyl)phenyl]methyl}-4-[(4-methylphenyl)methyl] piperidine-1-carboxamide] | 5 to 20 | 
O=C(NCc1ccc2c(c1)CNC2)N1CCC(Cc2ccncc2)CC1 [Example 65, N-(2,3-Dihydro-1H-isoindol-5-ylmethyl)-4-(pyridin-4-ylmethyl)piperidine-1-carboxamide dihydrochloride] | 50 to 100 | 
O=C(NCc1ccc2nc[nH]c2c1)N1CCC(Cc2ccccc2)C1 (stereo not shown) [Example 60, 2,2,2-Trifluoroacetic acid; N-(1H-1,3-benzodiazol-5-ylmethyl)-3-benzylpyrrolidine-1-carboxamide] | 5 to 20 | 
NCc1ccc(CNC(=O)N2CCC(Cc3ccccc3)C2)cc1 (stereo not shown) [Example 28, N-{[4-(Aminomethyl)phen-yl]methyl}-3-benzylpyrrolidine-1-carboxamide] | 20 to 50 | 
NCc1ccc(CNC(=O)N2CCN(C(=O)c3ccccc3)CC2)cc1 [Example 26, 2,2,2-Trifluoroacetic acid; N-{[4-(aminomethyl)phenyl]methyl}-4-benzoylpiperazine-1-carboxamide] | 20 to 50 | 
NCc1ccc(CNC(=O)N2CCC(Cc3ccccn3)CC2)cc1 [Example 8, N-{[4-(Aminomethyl)phen-yl]methyl}-4-(pyridin-2-ylmethyl)piperidine-1-carboxamide] | 5 to 20 | 
NCc1ccc(CNC(=O)N2CCC(C(=O)c3ccc(F)cc3)CC2)cc1 [Example 18, 2,2,2-Trifluoroacetic acid;- N-{[4-(aminomethyl)phenyl]methyl}-4-[(4-fluorophenyl)carbonyl] piperidine-1-carboxamide] | 5 to 20 | 
COc1ccc(CC2CCN(C(=O)NCc3ccc4nc[nH]c4c3)CC2)cc1 [Example 56, N-(1H-1,3-Benzodiazol-6-ylmethyl)-4-[(4-methoxyphenyl)methyl] piperidine-1-carboxamide] | 20 to 50 | 
NCc1ccc(CNC(=O)N2CCC(Oc3ccccc3Cl)CC2)cc1 [Example 13, N-{[4-(Aminomethyl)phen-yl]methyl}-4-(2-chlorophenoxy)piperidine-1-carboxamide hydrochloride] | 20 to 50 | 
COc1ccc(CC2CCN(C(=O)NCc3ccc(CN)cc3)CC2)cc1 [Example 3, 2,2,2-Trifluoroacetic acid; N-{[4-(aminomethyl)phenyl]methyl}-4-[(4-methoxyphenyl)methyl] piperidine-1-carboxamide] | < 5 | 
NCc1ccc(CNC(=O)N2CCC(Nc3ccccc3Cl)CC2)cc1 [Example 17, N-{[4-(Aminomethyl)phen-yl]methyl}-4-[(2-chlorophenyl)amino]piper-idine-1-carboxamide dihydrochloride] |  | < 5
O=C(NCc1ccc2nc[nH]c2c1)N1CCC(Nc2ccc(F)cc2)CC1 [Example 58, N-(1H-1,3-Benzodiazol-6-ylmethyl)-4-[(4-fluorophenyl)amino]piperidine-1-carboxamide] |  | 20 to 50

From patent publication US20130324556A1, “Protease Activated Receptor 2 (PAR2) Antagonists” (priority 2011, published 2013)
